Laboratory results: ChEMBL document CHEMBL5053557, “Discovery of Novel Dual-Target Inhibitor of Bromodomain-Containing Protein 4/Casein Kinase 2 Inducing Apoptosis and Autophagy-Associated Cell Death for Triple-Negative Breast Cancer Therapy” (J Med Chem, 2021)
Activity calls are given as the source filed them. The rule behind the calls is not given here.

Experiments:
[1] = biological target: T1, Bromodomain-containing protein 2 (Homo sapiens, UniProt P25440); assay: Inhibition of BRD2 BD1 (unknown origin) incubated for 2 hrs by TR-FRET assay
MDA-MB-468 [2] = assay: Induction of autophagy in human MDA-MB-468 cells harboring GFP-mRFP-LC3 assessed as down regulation of p62 level at 5 uM after 24 hrs by Western blot analysis; assay type: functional, cell-based
MDA-MB-468 [3] = assay: Inhibition of colony formation in human MDA-MB-468 cells at 5 uM after 7 days in presence of 3-MA by crystal violet staining based assay; assay type: functional, cell-based; conditions: time 7.0 day
[4] = biological target: T2, Bromodomain testis-specific protein (Homo sapiens, UniProt Q58F21); assay: Inhibition of BRDT BD2 (unknown origin) incubated for 2 hrs by TR-FRET assay
[5] = AUC(0 to infinity) in Sprague-Dawley rat at 1 mg/kg, iv by LC-MS analysis; assay type: ADME, organism-based; design: time infinity, dose 1 mg/kg, route iv; conditions: in vivo
MDA-MB-468 [6] = assay: Induction of autophagy in human MDA-MB-468 cells harboring GFP-mRFP-LC3 assessed as up regulation of beclin 1 level at 2.5 to 10 uM after 24 hrs by Western blot analysis; assay type: functional, cell-based; conditions: dose 2.5-10 µM
[7] = biological target: T1, Bromodomain-containing protein 2; assay: Inhibition of BRD2 BD2 (unknown origin) incubated for 2 hrs by TR-FRET assay
MDA-MB-231 [8] = assay: Induction of apoptosis in human MDA-MB-231 cells after 24 hrs by Hoechst 33258 staining fluorescence microscopic analysis; assay type: functional, cell-based; conditions: dose 2.5-10 µM
[9] = biological target: T2, Bromodomain testis-specific protein; assay: Inhibition of BRDT BD1 (unknown origin) incubated for 2 hrs by TR-FRET assay
MDA-MB-468 [10] = assay: Antitumor activity against human MDA-MB-468 cells xenografted in po dosed nude BALB/c mouse assessed as tumor growth inhibition administered once daily for 19 days and measured every 3 days; assay type: functional, organism-based; conditions: dose lower […], dose upper 50.0 mg/kg, time 19.0 day
[11] = biological target: Bromodomain-containing protein 4 (Homo sapiens, UniProt O60885); assay: Inhibition of BRD4 BD2 (unknown origin) incubated for 2 hrs by TR-FRET assay
MDA-MB-231 [12] = assay: Induction of autophagy in human MDA-MB-231 cells harboring GFP-mRFP-LC3 assessed as down regulation of p62 level at 5 uM after 24 hrs by Western blot analysis; assay type: functional, cell-based
[13] = AUC(0 to t) in Sprague-Dawley rat at 1 mg/kg, iv by LC-MS analysis; assay type: ADME, organism-based; design: dose 1 mg/kg, route iv; conditions: in vivo
MDA-MB-231 [14] = assay: Antitumor activity against human MDA-MB-231 cells xenografted in nude BALB/c mouse assessed as tumor growth inhibition at 50 mg/kg, po administered once daily for 19 days and measured every 3 days; assay type: functional; conditions: MDA-MB-231, 456 h, time 19 day, read-out: TGI
Mus musculus [15] = assay: Toxicity in nude BALB/c mouse xenografted with human MDA-MB-468 cells assessed as morphological changes in heart at 25 to 50 mg/kg, po administered once daily for 19 days and measured every 3 days by H and E staining based assay; assay type: organism-based; conditions: in vivo, 456 h, dose 25-50 mg/kg, time 19 day
MDA-MB-468 [16] = assay: Induction of apoptosis in human MDA-MB-468 cells after 24 hrs by Annexin V-FITC/propidium iodide staining based flow cytometry; assay type: functional, cell-based; conditions: dose 2.5-10 µM
MDA-MB-231 [17] = assay: Induction of apoptosis in human MDA-MB-231 cells at 5 uM preincubated with 3-MA for 1 hr followed by compound addition and measured after 24 hrs by Annexin V-FITC/propidium iodide staining based flow cytometric analysis; assay type: functional, cell-based
MDA-MB-231 [18] = assay: Antiproliferative activity against JQ-1 resistant human MDA-MB-231 cells incubated for 24 hrs by MTT assay; assay type: functional, cell-based
MDA-MB-231 [19] = assay: Induction of autophagy in human MDA-MB-231 cells harboring GFP-mRFP-LC3 assessed as up regulation of beclin 1 level at 2.5 to 10 uM after 24 hrs by Western blot analysis; assay type: functional, cell-based; conditions: dose 2.5-10 µM
MDA-MB-468 [20] = assay: Induction of apoptosis in human MDA-MB-468 cells assessed as down regulation of Bcl2 after 24 hrs by Western blot analysis; assay type: functional, cell-based; conditions: dose 2.5-10 µM
Mus musculus [21] = assay: Toxicity in nude BALB/c mouse xenografted with human MDA-MB-468 cells assessed as change in body weight at 25 to 50 mg/kg, po administered once daily for 19 days and measured every 3 days; assay type: organism-based; conditions: in vivo, 456 h, dose 25-50 mg/kg, time 19 day
Mus musculus [22] = assay: Toxicity in nude BALB/c mouse xenografted with human MDA-MB-231 cells assessed as morphological changes in spleen at 25 to 50 mg/kg, po administered once daily for 19 days and measured every 3 days by H and E staining based assay; assay type: organism-based; conditions: in vivo, 456 h, dose 25-50 mg/kg, time 19 day
Mus musculus [23] = assay: Down regulation of c-Myc expression in BALB/c SCID mouse xenogrfted with human MDA-MB-231 cells at 25 to 50 mg/kg, po administered once daily for 19 days by immunohistochemistry analysis; assay type: functional, organism-based; conditions: dose lower […], dose upper 50.0 mg/kg, time 19.0 day
[24] = Apparent volume of distribution in Sprague-Dawley rat at 1 mg/kg, iv by LC-MS analysis; assay type: ADME, organism-based; conditions: in vivo, read-out: Vz
MDA-MB-231 [25] = assay: Induction of autophagy in human MDA-MB-231 cells xenografted in nude BALB/c mouse assessed as increase in LC3II expression at 25 to 50 mg/kg, po administered once daily for 19 days by immunohistochemistry analysis; assay type: functional, organism-based; conditions: dose lower […], dose upper 50.0 mg/kg, time 19.0 day
[26] = biological target: Bromodomain-containing protein 3 (Homo sapiens, UniProt Q15059); assay: Inhibition of BRD3 BD1 (unknown origin) incubated for 2 hrs by TR-FRET assay
Mus musculus [27] = assay: Down regulation of phosphorylation of AKT at S129 residue expression in BALB/c SCID mouse xenogrfted with human MDA-MB-231 cells at 25 to 50 mg/kg, po administered once daily for 19 days by immunohistochemistry analysis; assay type: functional, organism-based; conditions: dose lower […], dose upper 50.0 mg/kg, time 19.0 day
MDA-MB-468 [28] = assay: Induction of apoptosis in human MDA-MB-468 cells assessed as up regulation of Bax after 24 hrs by Western blot analysis; assay type: functional, cell-based; conditions: dose 2.5-10 µM
[29] = Cmax in Sprague-Dawley rat at 1 mg/kg, iv by LC-MS analysis; assay type: ADME, organism-based; design: dose 1 mg/kg, route iv; conditions: in vivo
Mus musculus [30] = assay: Down regulation of c-Myc expression in BALB/c SCID mouse xenogrfted with human MDA-MB-231 cells at 25 to 50 mg/kg, po administered once daily for 19 days by Western blot analysis; assay type: functional, organism-based; conditions: dose lower […], dose upper 50.0 mg/kg, time 19.0 day
[31] = AUC(0 to t) in Sprague-Dawley rat at 10 mg/kg, po by LC-MS analysis; assay type: ADME, organism-based; design: dose 10 mg/kg, route po; conditions: in vivo
MDA-MB-231 [32] = assay: Induction of apoptosis in human MDA-MB-231 cells assessed as up regulation of Bax after 24 hrs by Western blot analysis; assay type: functional, cell-based; conditions: dose 2.5-10 µM
MDA-MB-468 [33] = assay: Induction of autophagy in human MDA-MB-468 cells harboring GFP-mRFP-LC3 assessed as autophagic flux at 5 uM after 24 hrs by fluorescence microscopic analysis; assay type: functional, cell-based
[34] = Cmax in Sprague-Dawley rat at 10 mg/kg, po by LC-MS analysis; assay type: ADME, organism-based; design: dose 10 mg/kg, route po; conditions: in vivo
MDA-MB-231 [35] = assay: Induction of apoptosis in human MDA-MB-231 cells assessed as up regulation of cleaved caspase 3 after 24 hrs by Western blot analysis; assay type: functional, cell-based; conditions: dose 2.5-10 µM
MDA-MB-468 [36] = assay: Induction of autophagy in human MDA-MB-468 cells harboring GFP-mRFP-LC3 assessed as up regulation of LC3II level at 2.5 to 10 uM after 24 hrs by Western blot analysis; assay type: functional, cell-based; conditions: dose 2.5-10 µM

T1 sequence (P25440 whole entry): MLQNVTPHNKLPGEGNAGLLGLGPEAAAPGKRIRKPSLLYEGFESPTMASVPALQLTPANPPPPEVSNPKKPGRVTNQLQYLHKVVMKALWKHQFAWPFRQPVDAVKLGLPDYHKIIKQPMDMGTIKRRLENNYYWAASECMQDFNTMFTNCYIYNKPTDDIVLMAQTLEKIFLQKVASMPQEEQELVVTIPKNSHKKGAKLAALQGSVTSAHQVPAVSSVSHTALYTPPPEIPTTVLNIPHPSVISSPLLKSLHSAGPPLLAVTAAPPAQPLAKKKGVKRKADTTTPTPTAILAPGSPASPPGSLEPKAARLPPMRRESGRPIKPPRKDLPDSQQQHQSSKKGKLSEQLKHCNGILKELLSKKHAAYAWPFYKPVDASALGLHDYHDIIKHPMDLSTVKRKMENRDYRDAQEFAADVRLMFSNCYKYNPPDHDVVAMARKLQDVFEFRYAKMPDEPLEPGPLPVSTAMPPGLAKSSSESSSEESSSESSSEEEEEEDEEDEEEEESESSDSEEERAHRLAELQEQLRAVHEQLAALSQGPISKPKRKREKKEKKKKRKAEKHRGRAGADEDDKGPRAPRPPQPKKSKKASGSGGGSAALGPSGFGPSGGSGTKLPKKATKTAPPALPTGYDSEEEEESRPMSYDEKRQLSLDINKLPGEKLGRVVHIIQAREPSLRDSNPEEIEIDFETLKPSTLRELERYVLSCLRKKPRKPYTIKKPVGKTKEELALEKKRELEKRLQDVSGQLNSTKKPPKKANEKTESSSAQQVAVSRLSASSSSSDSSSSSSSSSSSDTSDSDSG
Chain of Bromodomain-containing protein 3 (Q15059 whole entry): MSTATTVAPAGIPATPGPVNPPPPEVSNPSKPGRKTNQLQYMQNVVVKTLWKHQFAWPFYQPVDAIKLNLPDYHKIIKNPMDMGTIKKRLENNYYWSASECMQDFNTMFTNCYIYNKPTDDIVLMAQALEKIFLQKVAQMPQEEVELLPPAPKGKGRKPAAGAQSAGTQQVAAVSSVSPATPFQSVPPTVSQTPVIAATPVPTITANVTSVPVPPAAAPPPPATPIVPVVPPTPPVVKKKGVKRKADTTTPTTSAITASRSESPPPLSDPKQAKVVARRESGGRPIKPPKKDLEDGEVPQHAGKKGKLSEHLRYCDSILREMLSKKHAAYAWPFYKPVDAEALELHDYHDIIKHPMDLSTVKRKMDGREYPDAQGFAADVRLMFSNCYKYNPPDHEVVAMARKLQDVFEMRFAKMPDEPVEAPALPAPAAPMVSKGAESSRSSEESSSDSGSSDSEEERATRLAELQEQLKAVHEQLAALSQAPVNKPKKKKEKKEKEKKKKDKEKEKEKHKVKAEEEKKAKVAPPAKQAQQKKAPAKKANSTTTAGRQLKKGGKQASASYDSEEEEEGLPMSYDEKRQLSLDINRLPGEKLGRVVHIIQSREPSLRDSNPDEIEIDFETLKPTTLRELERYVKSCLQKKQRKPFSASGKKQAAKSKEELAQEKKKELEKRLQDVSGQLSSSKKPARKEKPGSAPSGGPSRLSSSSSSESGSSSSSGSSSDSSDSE

COc1cc(OC)c2c(=O)[nH]c(-c3ccc(OCC(=O)Nc4ccc(N5CCN(C)CC5)c(Cl)c4)cc3)nc2c1
IC50 [1]: > 10 µM
Activity (MDA-MB-468 [2]): Active
inhibition (MDA-MB-468 [3]): inactive
IC50 [4]: > 10 µM
AUC [5]: 588 ng·h/mL
Activity (MDA-MB-468 [6]): Active
IC50 [7]: 8.7 µM
Activity (MDA-MB-231 [8]): Dose-dependent effect
IC50 [9]: > 10 µM
Activity (MDA-MB-468 [10]): Active
IC50 [11]: 0.098 µM
Activity (MDA-MB-231 [12]): Active
AUC(0-t) [13]: 579 ng·h/mL
inhibition in vivo at 50 mg/kg (MDA-MB-231 [14]): 63.8%
Activity (Mus musculus [15]): Non-Toxic
Activity (MDA-MB-468 [16]): Dose-dependent effect
Activity (MDA-MB-231 [17]): inactive
Activity (MDA-MB-231 [18]): Active
Activity (MDA-MB-231 [19]): Active
Activity (MDA-MB-468 [20]): Dose-dependent effect
Activity (Mus musculus [21]): Non-Toxic
Activity (Mus musculus [22]): Non-Toxic
Activity (Mus musculus [23]): Active
Vd [24]: 21.1 L/kg
Activity (MDA-MB-231 [25]): Active
IC50 [26]: 9.2 µM
Activity (Mus musculus [27]): Active
Activity (MDA-MB-468 [28]): Dose-dependent effect
Cmax [29]: 237 ng/mL
Activity (Mus musculus [30]): Active
AUC(0-t) [31]: 2080 ng·h/mL
Activity (MDA-MB-231 [32]): Dose-dependent effect
Activity (MDA-MB-468 [33]): Active
Cmax [34]: 206 ng/mL
Activity (MDA-MB-231 [35]): Dose-dependent effect
Activity (MDA-MB-468 [36]): Active
